Experiments:
HPK1 kinase = HPK1 kinase (Homo sapiens (Human), UniProt Q92918); assay: HPK1 kinase activity inhibition (ADP-Glo Kinase Assay); assay type: biochemical; details: HPK1, MBP substrate, ATP, 25° C. 60 min
Procedure: Test Example 1: Detection of Compound's Ability to Inhibit HPK1 Kinase Activity (Method 1)
The specific operation is as follows: configure the enzymatic reaction system buffer (10 mM MOPS, pH 7.2, 5 mM β-glycerol-phosphate, 10 mM MgCl2, 0.8 mM EDTA, 2 mM EGTA, 0.1 mM DTT); the test compound (1 mM the compound stock solution in DMSO) was diluted with buffer to the highest concentration of 60 uM (containing 6% DMSO), and the compound with a concentration of 60 μM was initially diluted 5 times with a buffer containing 6% DMSO for a total of 8 points of gradient concentration; then dilute HPK1 kinase to 30 nM in buffer. Add 2 μl of HPK1 kinase diluent to each well of a Greiner 384-well microplate (Cat. No. 784075), and add 2 μl of buffer to the control well; add 1 μl of the diluted compound to the reaction well after brief centrifugation, and add 1 μl buffer solution containing 6% DMSO to the control well; after short centrifugation, place in a 25° C. constant temperature incubator (Shanghai Yiheng Scientific Instrument Co., Ltd., Cat. No.: LRH-150) and incubate for 20 minutes. Add 3 μl of reaction substrate (10 μM MBP and 20 μM ATP dissolved in distilled water) to each well, briefly centrifuge and incubate in a constant temperature incubator at 25° C. for 60 min, and use ADP-Glo Kinase Assay Kit to detect the enzymatic reaction activity, ADP-Glo Kinase Assay Kit detection is carried out according to the operating instructions of the kit. Data are described using the half maximal inhibitory concentration IC50 of the compound.

PBMC = PBMC IL-2 ELISA assay (IL-2 secretion after anti-CD3/anti-CD28); assay type: cell-based, human; details: highest signal vs 0.1% DMSO, anti-CD3/CD28, 24 h
Procedure: Test Example 5: Detection of Compound's Activating Ability to Secrete Cytokine Interleukin-2 (IL-2) from PBMC (Method 5)
The specific operation is as follows: the compound powder was dissolved in DMSO to 10 mM, 2 μl of the compound was added to 998 μl of RPMI 1640 medium (contained 10% FBS in this test), and the highest concentration point was obtained after vortexing. The compound solution was gradually diluted 3 times with 0.2% DMSO medium, with a total of 8 concentration points. That treated with RPMI 1640 medium solution containing 0.1% DMSO was used as a control. 1×10˜ 5 PBMC cells were added to each well of Corning 96-well cell culture plate (item number: 3599), and then the same volume of compound diluent was added to the control group. RPMI 1640 medium containing 0.2% DMSO was added to the control group and incubated in a 37° C. cell incubator (Thermo Fisher Scientific, model: 3111) for 1 hour. Then add Anti-human CD3 Antibody and 1 μg/ml Anti-human CD28 Antibody at a final concentration of 0.1 μg/ml, and place in a 37° C. cell culture incubator to incubate for 24 hours. The Human IL-2 DuoSet ELISA KIT was used to detect the IL-2 content in the cell supernatant, and the Human IL-2 DuoSet ELISA detection was performed according to the operating instructions of the kit. Data are described as the highest fold ratio of the stimulated signal of the compound to the signal of 0.1% DMSO.

DC2.4 cells = assay: DC2.4 IL-6 ELISA assay (IL-6 secretion after LPS); assay type: cell-based, mouse; details: highest signal vs 0.1% DMSO, 24 h
Procedure: Test Example 4: Detection of Compound's Activating Ability to Stimulate DC2.4 Cells to Secrete Cytokine Interleukin-6 (IL-6) ([…])
The specific operation is as follows: the compound powder was dissolved in DMSO to 10 mM, 2 μl of the compound was added to 998 μl of RPMI 1640 medium (contained 10% FBS in this test), and the highest concentration point was obtained after vortexing. The compound solution was gradually diluted 3 times with 0.2% DMSO medium, with a total of 8 concentration points. That treated with RPMI 1640 medium solution containing 0.1% DMSO was used as a control. Add 10^5 DC2.4 cells to each well of Corning 96-well cell culture plate (product number: 3599), then add an equal volume of compound dilution, add RPMI 1640 medium containing 0.2% DMSO to the control group, and place the cells at 37° C. to incubate for 1 h in an incubator (Thermo Fisher Scientific, model: 3111). Subsequently, LPS was added at a final concentration of 3.2 ng/ml, and placed in a cell culture incubator at 37° C. for 24 hours. Mouse IL-6 DuoSet ELISA KIT was used to detect the IL-6 content in the cell supernatant, and the Mouse […] DuoSet ELISA detection was carried out according to the operating instructions of the kit. Data are described as the highest fold ratio of the stimulated signal of the compound to the signal of 0.1% DMSO.

mouse spleen cells = assay: Spleen IL-2 ELISA assay (IL-2 secretion after Concanavalin A); assay type: cell-based, mouse (C57BL/6); details: highest signal vs 0.1% DMSO, ConA, 24 h
Procedure: Test Example 3: Detection of Compound's Activating Ability to Secrete Cytokine Interleukin-2 (IL-2) from Mouse Spleen Cells (Method 3)
The specific operation is as follows: the compound powder was dissolved in DMSO to 10 mM, 2 μl of the compound was added to 998 μl of RPMI 1640 medium (contained 10% FBS in this test), and the highest concentration point was obtained after vortexing. The compound solution was gradually diluted 3 times with 0.2% DMSO medium, with a total of 8 concentration points. That treated with RPMI 1640 medium solution containing 0.1% DMSO was used as a control. Add 10^5 mouse spleen cells to each well of Corning 96-well cell culture plate (product number: 3599), then add an equal volume of compound dilution, add RPMI 1640 medium containing 0.2% DMSO to the control group, and place the cells at 37° C. to incubate for 1 h in a cell culture incubator (Thermo Fisher Scientific, model: 3111). Then add Concanavalin A at a final concentration of 0.4 μg/ml and place in a cell culture incubator at 37° C. for 24 hours. Mouse IL-2 DuoSet ELISA KIT was used to detect the IL-2 content in the cell supernatant, and the Mouse […] DuoSet ELISA detection was carried out according to the operating instructions of the kit. Data are described as the highest fold ratio of the stimulated signal of the compound to the signal of 0.1% DMSO.

[1] = at compound concentration 10 μM
[2] = at compound concentration 0.37 μM
[3] = at compound concentration 1.1 μM
[4] = at compound concentration 1.11 μM
[5] = at compound concentration 3.3 μM

Chain of HPK1 kinase (Q92918 whole entry): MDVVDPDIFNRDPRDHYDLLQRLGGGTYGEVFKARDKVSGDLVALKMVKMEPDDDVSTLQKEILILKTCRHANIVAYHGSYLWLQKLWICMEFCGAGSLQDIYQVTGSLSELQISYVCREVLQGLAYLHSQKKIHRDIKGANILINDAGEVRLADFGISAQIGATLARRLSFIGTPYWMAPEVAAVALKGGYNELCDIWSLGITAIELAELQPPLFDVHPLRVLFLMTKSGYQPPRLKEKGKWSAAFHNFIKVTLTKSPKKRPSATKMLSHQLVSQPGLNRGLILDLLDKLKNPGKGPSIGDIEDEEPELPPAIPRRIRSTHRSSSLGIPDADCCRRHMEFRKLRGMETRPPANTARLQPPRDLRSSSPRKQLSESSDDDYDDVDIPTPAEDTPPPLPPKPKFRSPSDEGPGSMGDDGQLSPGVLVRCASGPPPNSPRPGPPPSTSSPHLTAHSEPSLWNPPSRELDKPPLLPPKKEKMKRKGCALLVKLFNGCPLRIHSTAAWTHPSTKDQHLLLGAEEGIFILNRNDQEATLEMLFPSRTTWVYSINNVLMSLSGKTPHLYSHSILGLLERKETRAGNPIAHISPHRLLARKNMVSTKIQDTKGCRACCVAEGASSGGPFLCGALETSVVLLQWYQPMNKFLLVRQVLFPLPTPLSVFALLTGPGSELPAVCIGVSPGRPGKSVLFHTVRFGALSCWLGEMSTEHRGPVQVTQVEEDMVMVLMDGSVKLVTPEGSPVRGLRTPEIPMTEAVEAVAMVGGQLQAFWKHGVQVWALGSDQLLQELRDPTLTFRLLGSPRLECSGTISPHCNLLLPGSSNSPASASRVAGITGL

Row | Compound | IC50 (HPK1 kinase) [nM] | % IL-2 increased (relative to DMSO control) (PBMC; [2]) [%] | % IL-6 increased (relative to DMSO control) (DC2.4 cells; [4]) [%] | other results
1 | 3-((8-(3,3-difluoropyrrolidin-1-yl)pyrido[3,4-d]pyrimidin-2-yl)amino)-1,6-dimethyl-5,6, 7,8-tetrahydro-1,6-naphthyridin-2(1H)-one [Example 85] | 25.3 | – | – | % IL-2 increased (relative to DMSO control) (PBMC; [1]): 339%; % IL-6 increased (relative to DMSO control) (DC2.4 cells; [1]): 305.00%; % IL-2 increased (relative to DMSO control) (mouse spleen cells; [1]): 260%
2 | Cn1c2c(cc(Nc3ncc4ccnc(N5CCSCC5)c4n3)c1=O)CN(CCO)CC2 [Example 84, 6-(2-hydroxyethyl)-1-methyl-3-((8-thiomorpholinopyrido[3,4-d]pyrimidin-2-yl)amino)-5,6,7,8-tetrahydro-1,6-naphthyridin-2(1H)-one] | 0.43 | – | – | –
3 | CN1CCc2c(cc(Nc3ncc4ccnc(N5CC6CC6C5)c4n3)c(=O)n2C)C1 (centres unmarked) [Example 86, 3-((8-(3-azabicyclo[3.1.0]hex-3-yl)pyrido[3,4-d]pyrimidin-2-yl)amino)-1,6-dimethyl-5,6,7,8-tetrahydro-1,6-naphthyridin-2(1H)-one] | 56.3 | – | – | –
4 | COCCn1c2c(cc(Nc3ncc4ccnc(N5CCC(F)(F)CC5)c4n3)c1=O)CN(C)CC2 [Example 87, 3-((8-(4,4-difluoropiperidin-1-yl)pyrido[3,4-d]pyrimidin-2-yl)amino)-1-(2-methoxyethyl)-6-methyl-5,6,7,8-tetrahydro-1,6-naphthyridin-2(1H)-one] | 19.9 | – | – | –
5 | COc1nc2c(cc1Nc1ncc3ccnc(N[C@@H](CO)C(C)C)c3n1)CN(C)CC2 [Example 92] | 0.23 | 182 | – | % IL-6 increased (relative to DMSO control) (DC2.4 cells; [2]): 546.00%; % IL-2 increased (relative to DMSO control) (mouse spleen cells; [2]): 160%
6 | COc1nc2c(cc1Nc1ncc3ccnc(N[C@H]4CCC[C@H]4O)c3n1)CN(C)CC2 [Example 104] | < 0.1 | 139 | 341.00 | % IL-2 increased (relative to DMSO control) (mouse spleen cells; at compound concentration 0.0046 μM): 120%
7 | COc1nc2c(cc1Nc1ncc3ccnc(N[C@H]4CCC[C@@H]4O)c3n1)CN(C)CC2 [Example 105] | < 0.1 | – | 321.00 | % IL-2 increased (relative to DMSO control) (PBMC; [3]): 176%; % IL-2 increased (relative to DMSO control) (mouse spleen cells; [3]): 170%

More lines, main results first:

Row | IC50 (HPK1 kinase) [nM] | Compound | % IL-2 increased (relative to DMSO control) (PBMC; [2]) [%] | % IL-6 increased (relative to DMSO control) (DC2.4 cells; [4]) [%] | other results
8 | < 0.1 | COc1nc2c(cc1Nc1ncc3ccnc(N[C@@H]4CCC[C@H]4O)c3n1)CN(C)CC2 [Example 99] | – | – | % IL-2 increased (relative to DMSO control) (PBMC; [3]): 236%; % IL-6 increased (relative to DMSO control) (DC2.4 cells; [1]): 526.00%
9 | < 0.1 | COc1nc2c(cc1Nc1ncc3ccnc(N[C@@H]4CC[C@@H](O)C4)c3n1)CN(C)CC2 [Example 100] | 239 | 623.00 | % IL-2 increased (relative to DMSO control) (mouse spleen cells; [5]): 190%
10 | < 0.1 | COc1nc2c(cc1Nc1ncc3ccnc(N[C@@H]4CCC[C@@H]4O)c3n1)CN(C)CC2 [Example 102] | – | 553.00 | % IL-2 increased (relative to DMSO control) (mouse spleen cells; [5]): 180%
